This is an account of results in ChEMBL document CHEMBL4428063, “Novel Pyrimidine Toll-like Receptor 7 and 8 Dual Agonists to Treat Hepatitis B Virus” (J Med Chem, 2016).

Structures are written as SMILES.

In experiment [1] the target is T1, Toll-like receptor 7 (Homo sapiens) (UniProt Q9NYK1).
T1 sequence (whole entry): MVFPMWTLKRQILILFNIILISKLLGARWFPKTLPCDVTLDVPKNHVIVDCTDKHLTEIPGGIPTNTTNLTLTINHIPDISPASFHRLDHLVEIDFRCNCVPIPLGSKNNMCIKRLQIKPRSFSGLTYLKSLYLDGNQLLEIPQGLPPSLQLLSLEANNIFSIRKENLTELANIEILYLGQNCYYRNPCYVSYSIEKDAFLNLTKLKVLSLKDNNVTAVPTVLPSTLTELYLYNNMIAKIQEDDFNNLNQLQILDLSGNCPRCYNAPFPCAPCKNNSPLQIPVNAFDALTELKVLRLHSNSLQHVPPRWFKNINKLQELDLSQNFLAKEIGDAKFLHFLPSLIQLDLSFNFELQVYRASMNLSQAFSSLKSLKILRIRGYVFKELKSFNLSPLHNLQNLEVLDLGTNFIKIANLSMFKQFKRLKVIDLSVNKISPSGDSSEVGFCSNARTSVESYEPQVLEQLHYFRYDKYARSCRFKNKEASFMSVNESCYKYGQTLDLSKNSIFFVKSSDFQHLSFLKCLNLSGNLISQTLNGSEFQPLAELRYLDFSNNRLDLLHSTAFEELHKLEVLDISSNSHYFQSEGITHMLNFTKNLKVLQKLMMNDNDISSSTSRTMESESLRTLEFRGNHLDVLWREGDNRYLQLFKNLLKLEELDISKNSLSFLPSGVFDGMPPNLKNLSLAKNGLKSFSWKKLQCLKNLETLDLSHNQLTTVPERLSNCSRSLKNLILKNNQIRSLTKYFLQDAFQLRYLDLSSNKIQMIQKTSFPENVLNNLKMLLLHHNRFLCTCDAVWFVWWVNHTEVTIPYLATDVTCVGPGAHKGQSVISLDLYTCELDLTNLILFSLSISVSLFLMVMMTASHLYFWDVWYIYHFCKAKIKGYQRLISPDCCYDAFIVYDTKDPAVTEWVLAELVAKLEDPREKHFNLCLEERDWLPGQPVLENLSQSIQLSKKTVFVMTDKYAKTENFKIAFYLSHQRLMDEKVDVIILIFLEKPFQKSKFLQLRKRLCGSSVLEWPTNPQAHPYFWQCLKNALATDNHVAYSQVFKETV
In words: Agonist activity at human TLR7 expressed in HEK293 cells measured after 6 hrs by NF-kappaB luciferase reporter gene assay. The experiment is classed as cell-based. Background: In a reporter assay the amount or activity of a reporter protein is the signal.

Experiment [2] deals with T2, Toll-like receptor 8 (Homo sapiens) (UniProt Q9NR97).
T2 sequence (whole entry): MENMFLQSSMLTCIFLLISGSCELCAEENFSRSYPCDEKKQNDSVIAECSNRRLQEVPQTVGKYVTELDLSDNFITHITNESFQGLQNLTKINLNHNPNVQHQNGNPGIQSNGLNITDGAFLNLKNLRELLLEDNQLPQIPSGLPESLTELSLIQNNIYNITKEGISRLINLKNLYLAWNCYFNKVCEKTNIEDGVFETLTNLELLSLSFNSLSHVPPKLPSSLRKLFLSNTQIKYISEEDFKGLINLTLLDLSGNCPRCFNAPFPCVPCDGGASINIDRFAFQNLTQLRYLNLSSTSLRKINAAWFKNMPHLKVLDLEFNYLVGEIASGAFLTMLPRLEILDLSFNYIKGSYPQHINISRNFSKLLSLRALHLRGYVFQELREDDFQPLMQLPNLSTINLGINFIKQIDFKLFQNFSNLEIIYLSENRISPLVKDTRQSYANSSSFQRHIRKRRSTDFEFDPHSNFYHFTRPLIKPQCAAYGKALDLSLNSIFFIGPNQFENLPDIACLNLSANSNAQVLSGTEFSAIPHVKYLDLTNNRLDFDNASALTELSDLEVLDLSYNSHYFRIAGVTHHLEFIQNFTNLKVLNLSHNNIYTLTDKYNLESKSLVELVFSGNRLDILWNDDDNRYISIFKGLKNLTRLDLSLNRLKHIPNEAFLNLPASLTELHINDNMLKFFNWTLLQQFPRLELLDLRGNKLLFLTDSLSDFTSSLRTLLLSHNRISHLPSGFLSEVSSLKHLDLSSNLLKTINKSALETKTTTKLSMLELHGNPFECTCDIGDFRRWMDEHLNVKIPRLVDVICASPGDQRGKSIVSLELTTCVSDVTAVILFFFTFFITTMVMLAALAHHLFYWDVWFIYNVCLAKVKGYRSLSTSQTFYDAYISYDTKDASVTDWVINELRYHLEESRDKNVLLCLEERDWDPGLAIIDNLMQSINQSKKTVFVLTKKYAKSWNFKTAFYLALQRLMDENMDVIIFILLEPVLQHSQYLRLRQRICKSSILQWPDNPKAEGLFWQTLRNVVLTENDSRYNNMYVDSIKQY
In words: Agonist activity at human TLR8 expressed in HEK293 cells assessed as measured after 6 hrs by NF-kappaB luciferase reporter gene assay. The experiment is classed as cell-based.

Experiment [3] addresses T1, Toll-like receptor 7 (Homo sapiens). In words: Activation of TLR7 in human PBMCs incubated for overnight duration followed by compound-treated cell supernatant conditioned media transfer to HCV1b transfected human HuH7-luc/neo replicon cells assessed as induction of INFalpha-mediated suppression of virus growth by firefly-luciferase reporter gene assay. For orientation: Replicon systems follow genome replication, usually without infectious particles.

In a further experiment the test system is HEK293. In words: Agonist activity at human TLR7-dLRR2 mutant expressed in HEK293 cells measured after 6 hrs by NF-kappaB luciferase reporter gene assay. The experiment is classed as cell-based.

On to `CCCCNc1nc(N)ncc1OCc1csc(C)n1`, for which the LED in experiment [1] stood at 0.29 µM; in experiment [2], 0.74 µM; in experiment [3] it was 0.07 µM.

With `CCCCNc1nc(N)ncc1OCc1nc(C)oc1C`, the LED in experiment [1] is 0.46 µM; in experiment [2], 1.58 µM.

As to `CCCCCNc1nc(N)ncc1OCC`, the LED came to 6 µM in experiment [1] and 3.2 µM in experiment [2].

For `CCCCNc1nc(N)ncc1OCc1cnccn1`, the LED is 0.51 µM in experiment [1], 2.28 µM in experiment [2] and 0.16 µM in experiment [3].

Consider `CC[C@H](C)[C@@H](CO)Nc1nc(N)ncc1OC`, for which the LED was found to be 17.8 µM in experiment [1], 0.66 µM in experiment [2] and 1.7 µM in experiment [3].

For the molecule `CCC[C@@H](CCO)Nc1nc(N)ncc1OC`, the LED in experiment [1] came out at 7.3 µM; in experiment [2] it was 1.4 µM; in experiment [3], 0.8 µM.

For the molecule `CCCC(C)Nc1nc(N)ncc1OC` (racemic), the LED in experiment [1] was more than 25 µM; in experiment [2], 2.8 µM; in experiment [3], 1.7 µM.

Take `CCC(C)[C@H](CCO)Nc1nc(N)ncc1OC` (some centres undefined): the values for the LED in experiment [1], in experiment [2] and in experiment [3] were 10.4 µM, 2.6 µM and 2.2 µM, respectively.

For the molecule `CCCCNc1nc(N)ncc1OCc1ncco1`, the LED in experiment [1] amounted to 2.87 µM; in experiment [2] it was 3.6 µM.

In the case of `CCCCNc1nc(N)ncc1OCCCc1ccccc1`, the values for the LED in experiment [1], in experiment [2] and in experiment [3] were 1.5 µM, 7.9 µM and 0.25 µM, respectively.

Regarding `COc1cnc(N)nc1N[C@H](CCO)CC(C)C`, the LED in experiment [1] was 10.8 µM; in experiment [2] it was 2.3 µM; in experiment [3], 7.5 µM.

On to `CCCCNc1nc(N)ncc1OCC`, for which the LED with HEK293 was determined as 1.6 µM; in experiment [1], 4.7 µM; in experiment [2] it was 1.1 µM.

For the molecule `COc1cnc(N)nc1N[C@H](CO)CC(C)C`, the LED in experiment [1] was more than 25 µM; in experiment [2], 16 µM; in experiment [3], 11 µM.

With `CCC[C@H](CO)Nc1nc(N)ncc1OC`, the LED in experiment [1] is more than 25 µM; in experiment [2], 9 µM.

For the molecule `CCCCNc1nc(N)ncc1OCc1cnn(C)c1`, the values for the LED in experiment [1] and in experiment [2] were 7 µM and 13.7 µM, respectively.

As to `C=CCNc1nc(N)ncc1OC`, the LED is more than 25 µM in experiment [1], 8.5 µM in experiment [2] and 6.2 µM in experiment [3].

Consider `CCCCNc1nc(N)ncc1OCCC`, for which the LED in experiment [1] turned out to be 6.2 µM; in experiment [2], 4.5 µM; in experiment [3] it was 4.8 µM.

In the case of `CCCCNc1nc(N)ncc1OCc1nc2ccccc2[nH]1`, the figures for the LED in experiment [1], in experiment [2] and in experiment [3] were 0.032 µM, 0.65 µM and 0.012 µM, respectively.

In the case of `CCCCNc1nc(N)ncc1OCc1cccnn1`, the LED came out at 0.52 µM in experiment [1], 0.83 µM in experiment [2] and 0.12 µM in experiment [3].

Consider `CCCC[C@@H](CO)Nc1nc(N)ncc1OC`, for which the LED in experiment [1] was found to be 8.01 µM; in experiment [2], 0.39 µM; in experiment [3] it was 0.4 µM.

Take `CCCCNc1nc(N)ncc1OCc1nccc(OC)c1OC`: the LED was determined as 0.13 µM in experiment [1], 0.6 µM in experiment [2] and 0.022 µM in experiment [3].

Take `CCCCNc1nc(N)ncc1OCc1c(C)noc1C`: the LED was 3.1 µM in experiment [1], 1 µM in experiment [2] and 0.38 µM in experiment [3].

As to `COc1cnc(N)nc1NCCCC(F)(F)F`, the LED in experiment [1] worked out at 6.5 µM; in experiment [2], 6.6 µM; in experiment [3], 1.6 µM.

On to `CC[C@H](C)CNc1nc(N)ncc1OC`, for which the LED in experiment [1] is more than 25 µM; in experiment [2], more than 25 µM; in experiment [3], more than 24 µM.

In the case of `CCCCNc1nc(N)nc(C)c1OCc1ccccc1`, the figures for the LED in experiment [1] and in experiment [2] were 18 µM and 7.5 µM, respectively.

In the case of `CCCCNc1nc(N)ncc1OCc1nn(C)c2ccccc12`, the LED in experiment [1] was 0.014 µM; in experiment [2], 0.18 µM; in experiment [3] it was 0.011 µM.

For the molecule `CCCCNc1nc(N)ncc1OC(C)C`, the LED turned out to be 10 µM in experiment [1], 0.7 µM in experiment [2] and 0.5 µM in experiment [3].

With `CCCCNc1nc(N)ncc1OCc1cc2ccccn2n1`, the results for the LED in experiment [1], in experiment [2] and in experiment [3] were 0.21 µM, 1.3 µM and 0.037 µM, respectively.

Consider `CCCCNc1nc(N)ncc1OCc1ccccc1`, for which the results for the LED in experiment [1], in experiment [2] and in experiment [3] were 0.9 µM, 2.4 µM and 0.39 µM, respectively.

On to `CCCCNc1nc(N)ncc1OCc1nc2ccccc2s1`, for which the LED came out at 0.28 µM in experiment [1], 2.6 µM in experiment [2] and 0.11 µM in experiment [3].

Take `COc1cnc(N)nc1NCCC1CC1`: the LED in experiment [1] was more than 25 µM; in experiment [2], 20.9 µM; in experiment [3] it was 6.8 µM.

`CCCCNc1nc(N)ncc1OCc1ccc2ccccc2n1`: the LED was 0.3 µM in experiment [1], 0.89 µM in experiment [2] and 0.09 µM in experiment [3].

On to `CCCCNc1nc(N)ncc1OCc1nccc2ccccc12`, for which the LED was determined as 0.008 µM in experiment [1], 0.14 µM in experiment [2] and 0.003 µM in experiment [3].

Regarding `CCCCNc1nc(N)ncc1OCc1cc(C)nn1C`, the LED in experiment [1] came to 0.7 µM; in experiment [2], 0.92 µM; in experiment [3], 0.39 µM.

For the molecule `CCC[C@@H](CO)Nc1nc(N)ncc1OC`, the LED in experiment [1] stood at 8.4 µM; in experiment [2] it was 0.25 µM; in experiment [3], 0.4 µM.
